The results in this text go back to PMC4232510, “Identification of Functionally Important Residues of the Rat P2X4 Receptor by Alanine Scanning Mutagenesis of the Dorsal Fin and Left Flipper Domains” (PLoS ONE, 2014).

Changes are numbered by the printed parent chain.

Common to all, as to test: whole-cell patch clamp, HEK293T cells expressing mutant
Holding throughout (assay type): cell-based
Common to all, as to settings: for relative responsiveness: 100 µM agonist 2 s, relative to ATP (100%)

The target in one experiment is T1, rP2X4R D280A mutant (Rattus norvegicus, UniProt P51577, D280A).
T1 construct: expressed in transfected cells; host or cells: HEK293T
T1 sequence (P51577 1-388 D280A): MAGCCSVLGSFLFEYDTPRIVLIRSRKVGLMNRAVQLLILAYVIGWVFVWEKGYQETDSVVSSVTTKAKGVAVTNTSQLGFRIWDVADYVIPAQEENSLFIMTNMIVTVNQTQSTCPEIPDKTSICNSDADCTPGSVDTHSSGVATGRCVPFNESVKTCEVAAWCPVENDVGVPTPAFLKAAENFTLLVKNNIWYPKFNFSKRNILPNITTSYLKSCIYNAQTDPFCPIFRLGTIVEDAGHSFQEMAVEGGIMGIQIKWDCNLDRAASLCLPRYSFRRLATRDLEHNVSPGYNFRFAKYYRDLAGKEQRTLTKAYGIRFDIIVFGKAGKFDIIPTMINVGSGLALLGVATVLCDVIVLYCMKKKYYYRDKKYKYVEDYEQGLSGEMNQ

The target of a further experiment is T2, rP2X4R L284A mutant (Rattus norvegicus, UniProt P51577, L284A).
T2 construct: expressed in transfected cells; host or cells: HEK293T
T2 sequence (P51577 1-388 L284A): T1 sequence (P51577 1-388 D280A) with A280D, L284A

A further experiment concerns the target T3, rP2X4R T281A mutant (Rattus norvegicus, UniProt P51577, T281A).
T3 construct: expressed in transfected cells; host or cells: HEK293T
T3 sequence (P51577 1-388 T281A): T1 sequence (P51577 1-388 D280A) with A280D, T281A

Setting [1] is: 100 µM ATP 60 s, biexponential fit.
Where [2] appears, read: contribution of τdes2, 100 µM ATP 60 s.
The mark [3] stands for this setting: decay after removal of 1 or 3 µM ATP, 3 µM IVM.
[4] abbreviates: naïve receptors, 2–5 s application.
The mark [5] stands for this setting: 3 µM IVM 4-6 min vs IVM-untreated.

Regarding `Nc1ncnc2c1ncn2C1OC(COP(=O)(O)CP(=O)(O)OP(=O)(O)O)C(O)C1O` (stereo not drawn) [α,β-meATP, α,β-methyleneadenosine 5′-triphosphate], the relative responsiveness at rP2X4R D280A mutant is recorded as 33.1±6.0%; at rP2X4R L284A mutant, 22.2±3.9%; on rP2X4R T281A mutant, 28.2±5.5%.

What is called EC50 is the midpoint of the concentration-response curve. A high value points to a less potent agent. Turning to `Nc1ncnc2c1ncn2[C@@H]1O[C@H](COP(=O)(O)OP(=O)(O)OP(=O)(O)O)[C@@H](O)[C@H]1O` [ATP], the “EC50 rightward shift compared to WT” value at rP2X4R D280A mutant is “approximately 10 fold”. Also, the τdes1 on rP2X4R D280A mutant (setting [1]) is 3.9 ± 1.2 s; on rP2X4R L284A mutant (setting [1]), 0.8 ± 0.1 s; on rP2X4R T281A mutant (setting [1]) it was 2.4 ± 0.4 s. In addition, the τdes2 on rP2X4R D280A mutant (setting [1]) was 22.9 ± 7.8 s; at rP2X4R L284A mutant (setting [1]) it was 7.2 ± 1.0 s; on rP2X4R T281A mutant (setting [1]) it was 15.6 ± 2.3 s. For the same molecule, the results for the Imax at rP2X4R D280A mutant (100–1000 µM ATP), on rP2X4R L284A mutant (100–1000 µM ATP) and on rP2X4R T281A mutant (100–1000 µM ATP) were 0.7 ± 0.1 nA, 2.4 ± 0.3 nA and 2.3 ± 0.3 nA, respectively. The entries for the “Imax+IVM” value on rP2X4R D280A mutant (ATP after 3 µM IVM 4-6 min), at rP2X4R L284A mutant (ATP after 3 µM IVM 4-6 min) and at rP2X4R T281A mutant (ATP after 3 µM IVM 4-6 min) were 3.6 ± 0.4 nA, 4.1 ± 0.3 nA and 4.8 ± 0.9 nA, respectively. The “A2 /(A1+A2)” value on rP2X4R D280A mutant (setting [2]) came to 62 ± 6%; on rP2X4R L284A mutant (setting [2]), 60 ± 5%; at rP2X4R T281A mutant (setting [2]) it was 72 ± 12%. Further, the “τoff +IVM” value on rP2X4R D280A mutant (setting [3]) is reported as 5.5 ± 0.3 s; at rP2X4R L284A mutant (setting [3]), 28 ± 2.3 s; at rP2X4R T281A mutant (setting [3]), 13 ± 1.0 s. For the same molecule, the EC50 on rP2X4R D280A mutant (setting [4]) turned out to be 26 ± 8.2 µM; at rP2X4R L284A mutant (setting [4]) it was 3.9 ± 1.9 µM; at rP2X4R T281A mutant (setting [4]), 8.2 ± 2.8 µM. Besides, the τdes on rP2X4R D280A mutant (weighted, 100 µM ATP 60 s) was found to be 15 ± 3.7 s; at rP2X4R L284A mutant (weighted, 100 µM ATP 60 s), 4.8 ± 0.9 s; on rP2X4R T281A mutant (weighted, 100 µM ATP 60 s) it was 12 ± 2.4 s.

For `CSc1nc(N)c2ncn([C@@H]3O[C@H](COP(=O)(O)OP(=O)(O)OP(=O)(O)O)[C@@H](O)[C@H]3O)c2n1` [2-MeS-ATP, 2-(Methylthio)adenosine 5′-triphosphate], the relative responsiveness on rP2X4R D280A mutant is 56.3±7.8%; at rP2X4R L284A mutant it was 69.0±3.0%; at rP2X4R T281A mutant, 69.6±5.1%.

In the case of “2′(3′-O-(4-Benzoylbenzoyl)adenosine 5′-triphosphate [BzATP]”, the relative responsiveness on rP2X4R D280A mutant stood at 25.4±1.5%; on rP2X4R L284A mutant it was 20.6±0.2 %; at rP2X4R T281A mutant it was 26.7±3.9%.

`Nc1ncnc2c1ncn2[C@@H]1O[C@H](CO[P@](=O)(O)O[P@](=O)(O)O[P@@](=O)(O)S)[C@@H](O)[C@H]1O` [ATPγS, Adenosine 5′-(γ-thio)triphosphate]: the relative responsiveness at rP2X4R D280A mutant was 55.7±3.8%; at rP2X4R L284A mutant, 32.4±8.2%; on rP2X4R T281A mutant, 50.2±5.9%.

As to `CC[C@H](C)[C@H]1O[C@]2(CC[C@@H]1C)C[C@@H]1C[C@@H](C/C=C(\C)[C@@H](O[C@H]3C[C@H](OC)[C@@H](O[C@H]4C[C@H](OC)[C@@H](O)[C@H](C)O4)[C@H](C)O3)[C@@H](C)/C=C/C=C3\CO[C@@H]4[C@H](O)C(C)=C[C@@H](C(=O)O1)[C@]34O)O2` [IVM, ivermectin], the entries for the “Fold incr. Imax” value at rP2X4R D280A mutant (setting [5]), on rP2X4R L284A mutant (setting [5]) and on rP2X4R T281A mutant (setting [5]) were 5.1 ± 0.5 fold, 1.7 ± 0.1 fold and 2.1 ± 0.2 fold, respectively.
